Measurements from patent US20050266575A1 (priority 2004, published 2005).
No end group written: not given here.

Legend:
ORL1 [1] = molecular target: T1, ORL1 (Homo sapiens, UniProt P41146); assay: Calcium flux (FLIPR) in carbachol-sensitized HEK-293 cells expressing ORL-1 receptor; assay type: cell-based; set-up: expressed in transfected cells; host or cells: HEK-293 cells expressing ORL-1 receptor; settings: for EC50: HEK-293 cells expressing ORL-1, pretreated with 100 μM carbachol, read-out: EC50 (calcium release); for EC50(x)/EC50(WT): ratio of variant EC50 to nociceptin EC50
Experimental: HEK-293 cells expressing ORL-1 receptor were plated at a density of 50,000 cells/well in a total volume of 50 ↑L onto 96-well plates. Two days later cells were prepared for assay using the FLIPR Calcium Assay Kit (Molecular Devices) according to manufacturer's directions, with the exception that the volume of dye mix added to each well was 50 μL instead of 100 μL. Cells were then treated with 100 μM carbachol in 100 μL. […] Data points were collected at one per second for 120 seconds, then one every three seconds for 30 seconds for a total collection time of 150 seconds after both the first and second additions.
This produced a “percent of carbachol response” for each dose. The experiment was repeated 6 times and the high and low values for each concentration were dropped. The data were used to generate EC50 curves using GraphPad Prizm v.3.0 software.
Target sequence in this assay (P41146 whole entry): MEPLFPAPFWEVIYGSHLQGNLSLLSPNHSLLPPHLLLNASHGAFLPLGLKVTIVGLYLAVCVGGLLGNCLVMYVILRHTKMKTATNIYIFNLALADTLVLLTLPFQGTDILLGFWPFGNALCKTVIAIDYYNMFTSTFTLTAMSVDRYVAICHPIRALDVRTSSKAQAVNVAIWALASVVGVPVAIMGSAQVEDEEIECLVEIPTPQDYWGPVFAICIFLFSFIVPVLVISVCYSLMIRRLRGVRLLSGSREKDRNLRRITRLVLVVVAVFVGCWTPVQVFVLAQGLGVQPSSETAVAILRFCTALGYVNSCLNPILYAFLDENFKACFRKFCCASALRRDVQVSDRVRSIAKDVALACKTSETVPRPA

[2] = molecular target: T2, human nociceptin receptor (ORL-1) (Homo sapiens, UniProt P41146); assay: Nociceptin receptor binding assay: binding of 125I-Tyr14-nociceptin to ORL-1 on HEK-293 cell membranes; settings: for Ki: competition with 0.5 nM 125I-Tyr14-nociceptin, HEK-293 cell membranes, 3 experiments in duplicate; for Ki(x)/Ki(WT): ratio of variant Ki to nociceptin Ki
T2 construct: expressed in transfected cells
T2 sequence (P41146 whole entry): as above
Experimental: Binding of peptides to the ORL-1 Receptor. […] ORL-1 membranes were diluted in binding buffer such that 25 μL containing 1 microgram (μg) of membrane was added to each well of a standard 96-well microtiter in binding buffer. […] Plates were incubated for two hours at room temperature and the reactions were filtered over GF/C Filterplates (Perkin Elmer-NEN), prewetted in 0.03% polyethleneimine, in a Filtermate 196 apparatus (Packard). Plates were washed six times with binding buffer in the filtration apparatus, then dried under vacuum for 1-2 hours. Twenty five microliters (25 μL) Microscint 20 (Packard) per well was added to solubilize bound radioactivity. The plates were then sealed and counted on a Packard Top Count to determine radioactivity bound to the membranes. Curves were fitted and IC50 values determined using Graphpad Prizm software (v3.0).

ORL1 [3] = molecular target: T1, ORL1; settings: cited from earlier work
Target sequence in this assay (P41146 whole entry, species assumed): as the sequence (P41146 whole entry) above

Row | Compound | EC50 (ORL1 [1]) [nM] | EC50(x)/EC50(WT) (ORL1 [1]) | Ki [2] [nM] | Ki(x)/Ki(WT) [2] | fold lower affinity for ORL1 than nociceptin (ORL1 [3]) [fold]
1 | FGGFTGARKSSRKLANQ [Peptide A11S] | 1.2 | 0.5 | 1.2 | 1.7 | –
2 | FAGFTGARKSARKLANQ [Peptide G2A] | 1390 | 581 | 191 | 265 | –
3 | FGGFTGARKSAKKLANQ [Peptide R12K] | 2.4 | 1.0 | 0.8 | 1.1 | –
4 | FGGFTGARKSAAKLANQ [Peptide R12A] | 1.3 | 0.5 | 2.8 | 3.9 | –
5 | FGGFTGARASARKLANQ [Peptide K9A] | 2.8 | 1.2 | 1.5 | 2.1 | –
6 | FGGFAGARKSARKLANQ [Peptide T5A] | 159 | 66 | 6.4 | 8.9 | –
7 | FGGFTGARKAARKLANQ [Peptide S10A] | 42 | 18 | 0.8 | 1.2 | –
8 | FGGFTGSRKSARKLANQ [Peptide A7S] | 5.6 | 2.3 | 1.5 | 2.1 | –
9 | FGGFTGARKSLRKLANQ [Peptide A11L] | 8.3 | 3.5 | 0.9 | 1.2 | –
10 | FGGFTGARKSGRKLANQ [Peptide A11G] | 11 | 4.8 | 3.2 | 4.4 | –
11 | FGGFTGARKSARKLANA [Peptide Q17A] | 12 | 4.8 | 0.8 | 1.1 | –
12 | FGGFTGARKSARKLAAQ [Peptide N16A] | 1.7 | 0.7 | 0.3 | 0.4 | –
13 | FGGFTGARKSARKLGNQ [Peptide A15G] | 1.9 | 0.8 | 0.2 | 0.3 | –
14 | FGGFSGARKSARKLANQ [Peptide T5S] | 27 | 11 | 1.4 | 2.0 | –
15 | CCCC[C@H](NC(=O)[C@H](CO)NC(=O)[C@H](CCCCN)NC(=O)[C@H](CCCNC(=N)N)NC(=O)[C@H](C)NC(=O)CNC(=O)[C@@H](NC(=O)[C@H](Cc1ccccc1)NC(=O)CNC(=O)CNC(=O)[C@@H](N)Cc1ccccc1)[C@@H](C)O)C(=O)N[C@@H](CCCNC(=N)N)C(=O)N[C@@H](CCCCN)C(=O)N[C@@H](CC(C)C)C(=O)N[C@@H](C)C(=O)N[C@@H](CC(N)=O)C(=O)N[C@@H](CCC(N)=O)C(=O)O [Peptide A11nleu] | 4.2 | 1.8 | 1.9 | 2.6 | –
16 | FGGFLGARKSARKLANQ [Peptide T5L] | 14 | 5.7 | 2.2 | 3.1 | –
17 | CCCC[C@H](NC(=O)CNC(=O)[C@@H](NC(=O)[C@H](Cc1ccccc1)NC(=O)CNC(=O)CNC(=O)[C@@H](N)Cc1ccccc1)[C@@H](C)O)C(=O)N[C@@H](CCCNC(=N)N)C(=O)N[C@@H](CCCCN)C(=O)N[C@@H](CO)C(=O)N[C@@H](C)C(=O)N[C@@H](CCCNC(=N)N)C(=O)N[C@@H](CCCCN)C(=O)N[C@@H](CC(C)C)C(=O)N[C@@H](C)C(=O)N[C@@H](CC(N)=O)C(=O)N[C@@H](CCC(N)=O)C(=O)O [Peptide A7nleu] | 29 | 12 | 0.5 | 0.7 | –
18 | FGGFTGAKKSAKKLANQ [R8K/R12K] | 53.5 | 22 | 3.9 | 5.4 | –
19 | FGGFTGLRKSARKLANQ [Peptide A7L] | 13 | 5.2 | 0.8 | 1.1 | –
20 | FGGFTGAKKSARKLANQ [Peptide R8K] | 64 | 27 | 32 | 45 | –
21 | FGGFTGAAKSARKLANQ [Peptide R8A] | 69 | 29 | 50 | 69 | –
22 | FGGFTGARKSARALANQ [Peptide K13A] | 1.1 | 0.5 | 1.5 | 2.1 | –
23 | Y G G F L R R I R P K L K W D N Q [Dynorphin A] | – | – | – | – | 100
24 | FGGATGARKSARKLANQ [Peptide F4A] | 3880 | 1617 | 188 | 262 | –
25 | AGGFTGARKSARKLANQ [Peptide F1A] | 1440 | 601 | 91 | 127 | –
26 | FGGFTAARKSARKLANQ [Peptide G6A] | 39 | 16 | 1.5 | 2.1 | –
27 | FGAFTGARKSARKLANQ [Peptide G3A] | 13 | 5.5 | 1.6 | 2.2 | –
28 | FGGFTGGRKSARKLANQ [Peptide A7G] | 18 | 7.4 | 7.7 | 11 | –
29 | FGGFTGARKSARKAANQ [Peptide L14A] | 7 | 2.9 | 0.2 | 0.3 | –
